Reference: article PMC5450158 (European journal of pharmaceutical sciences : official …, 2017)

molecular target: T1, MRP3 (ABCC3) (Homo sapiens, UniProt O15438); assay: inhibition of ATP-dependent [3H]-E217G uptake, membrane vesicles; assay type: biochemical; settings: not given
T1 sequence (O15438 whole entry): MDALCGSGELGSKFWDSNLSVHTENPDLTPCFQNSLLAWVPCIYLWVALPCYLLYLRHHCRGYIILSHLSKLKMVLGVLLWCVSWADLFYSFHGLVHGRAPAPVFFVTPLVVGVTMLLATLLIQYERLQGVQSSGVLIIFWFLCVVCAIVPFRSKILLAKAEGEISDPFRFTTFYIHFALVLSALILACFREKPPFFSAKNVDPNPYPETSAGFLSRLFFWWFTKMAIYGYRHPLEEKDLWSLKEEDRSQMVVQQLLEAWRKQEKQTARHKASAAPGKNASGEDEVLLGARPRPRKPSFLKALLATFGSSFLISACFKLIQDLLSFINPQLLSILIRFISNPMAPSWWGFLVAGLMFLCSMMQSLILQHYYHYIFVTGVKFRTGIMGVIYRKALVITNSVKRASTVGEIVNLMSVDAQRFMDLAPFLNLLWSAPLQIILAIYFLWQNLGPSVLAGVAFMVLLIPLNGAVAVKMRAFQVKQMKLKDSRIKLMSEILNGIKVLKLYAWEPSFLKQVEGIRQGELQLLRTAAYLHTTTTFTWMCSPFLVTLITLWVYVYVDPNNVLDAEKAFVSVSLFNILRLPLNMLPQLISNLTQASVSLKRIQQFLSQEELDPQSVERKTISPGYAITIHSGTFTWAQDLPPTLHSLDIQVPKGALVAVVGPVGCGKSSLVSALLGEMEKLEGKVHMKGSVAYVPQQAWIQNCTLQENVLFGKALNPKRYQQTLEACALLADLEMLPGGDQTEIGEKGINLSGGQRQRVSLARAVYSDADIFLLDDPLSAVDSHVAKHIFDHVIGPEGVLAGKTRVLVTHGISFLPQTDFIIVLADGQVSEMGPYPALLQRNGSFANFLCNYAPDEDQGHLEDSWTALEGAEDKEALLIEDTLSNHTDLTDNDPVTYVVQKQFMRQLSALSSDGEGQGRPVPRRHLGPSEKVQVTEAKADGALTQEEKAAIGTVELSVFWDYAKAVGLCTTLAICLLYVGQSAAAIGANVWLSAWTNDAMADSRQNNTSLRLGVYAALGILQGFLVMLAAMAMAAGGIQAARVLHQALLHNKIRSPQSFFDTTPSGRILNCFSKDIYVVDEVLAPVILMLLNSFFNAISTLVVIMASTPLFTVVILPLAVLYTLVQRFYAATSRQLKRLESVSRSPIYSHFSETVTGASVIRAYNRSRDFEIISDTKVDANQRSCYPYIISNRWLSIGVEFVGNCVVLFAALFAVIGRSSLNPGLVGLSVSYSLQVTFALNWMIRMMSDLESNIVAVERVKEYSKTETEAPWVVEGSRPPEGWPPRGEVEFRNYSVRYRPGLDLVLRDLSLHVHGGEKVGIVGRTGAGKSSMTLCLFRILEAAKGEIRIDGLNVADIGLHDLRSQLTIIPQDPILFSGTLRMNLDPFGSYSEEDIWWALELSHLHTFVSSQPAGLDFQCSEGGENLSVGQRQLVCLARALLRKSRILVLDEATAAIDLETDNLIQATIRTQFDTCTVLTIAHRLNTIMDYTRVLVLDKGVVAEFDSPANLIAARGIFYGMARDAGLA

SMILES	IC50
Cc1ccc(C(=O)Nc2ccc(S(=O)(=O)O)c3cc(S(=O)(=O)O)cc(S(=O)(=O)O)c23)cc1NC(=O)c1cccc(NC(=O)Nc2cccc(C(=O)Nc3cc(C(=O)Nc4ccc(S(=O)(=O)O)c5cc(S(=O)(=O)O)cc(S(=O)(=O)O)c45)ccc3C)c2)c1 [suramin]	3.33 ± 0.41 µM
CCCCc1oc2ccc(NS(C)(=O)=O)cc2c1C(=O)c1ccc(OCCCN(CCCC)CCCC)cc1 [dronedarone]	47.4 ± 4.41 µM

same assay, conditions: 10 μM E217G, ATP, 5 min, 37 °C; 0.1-100 μM inhibitor

SMILES	IC50
CCc1c(Cl)c(O)c(Cl)c(O)c1C(=O)O[C@H]1[C@H](O)[C@H](OC)[C@H](OC/C2=C\C=C\C[C@H](O)/C(C)=C/[C@H](CC)[C@@H](O[C@@H]3OC(C)(C)[C@@H](OC(=O)C(C)C)[C@H](O)[C@@H]3O)/C(C)=C/C(C)=C/C[C@@H]([C@@H](C)O)OC2=O)O[C@@H]1C [fidaxomicin]	1.83 ± 0.46 µM

molecular target: T1, MRP3 (ABCC3); assay: as above; settings: 10 μM E217G, 5 min, 37 °C, 100 μM compound, value is remaining uptake

SMILES	E217G uptake, % of control at 100 μM
CNC(=O)c1cc(Oc2ccc(NC(=O)Nc3ccc(Cl)c(C(F)(F)F)c3)c(F)c2)ccn1 [regorafenib]	69.5%
CCOC(=O)C1=C(C)NC(C)=C(C(=O)OC)C1c1cccc(Cl)c1Cl (stereo not drawn) [felodipine]	45.8%
NS(=O)(=O)c1cc2c(cc1Cl)NC=NS2(=O)=O [Chlorothiazide]	37.4%
CC[C@H](C)C(=O)O[C@H]1C[C@@H](C)C=C2C=C[C@H](C)[C@H](CC[C@@H]3C[C@@H](O)CC(=O)O3)[C@H]21 [lovastatin]	63.5%
COC(=O)N[C@H](C(=O)N[C@@H](Cc1ccccc1)[C@@H](O)CN(Cc1ccc(-c2ccccn2)cc1)NC(=O)[C@@H](NC(=O)OC)C(C)(C)C)C(C)(C)C [atazanavir]	55.0%
OCCN(CCO)c1nc(N2CCCCC2)c2nc(N(CCO)CCO)nc(N3CCCCC3)c2n1 [dipyridamole]	52.1%
